Data on three compounds can be found in US20020122768A1, “Stable radiopharmaceutical compositions and methods for preparation thereof” (priority 2000, published 2002).

Holding throughout (assay type): physicochemical
Data set [1] is described as follows: Solution stability of ^90Y-A at −78° C., RCP by radio-HPLC. To be noted: for RCP (%) change: t = 0 h to 72 h. The method, then: (§1) The integrity of a radiopharmaceutical is measured by the radiochemical purity (RCP) of the radiolabeled compound using ITLC or more preferably HPLC. The advantage of using HPLC is that radio-impurities caused by radiolytic degradation can be separated from the radiopharmaceutical under optimized chromatographic conditions. […] The radiopharmaceutical compositions of this invention are effective in maintaining the long-term stability of samples that have been frozen, thawed, and re-tested periodically for 7 days.
(§2) The initial RCP of a radiopharmaceutical is largely dependent on radiolabeling conditions such as pH, heating temperature and time. Once a radiopharmaceutical is prepared in high yield, the stability of the radiopharmaceutical composition is measured by the` RCP change of the radiopharmaceutical over a certain period of time. For comparison purposes, sodium gentisate or sodium ascorbate was often used as the reference since they have been used in various radiopharmaceutical formulations.
Analytical Methods. HPLC method 1 used a HP-1100 HPLC system with a UV/visible detector (λ=220 nm), an IN-US radio-detector, and a Zorbax C18 column (4.6 mm×250 mm, 80 Å pore size). The flow rate was 1 mL/min with the mobile phase being isocratic from 0 to 18 min using 87% solvent A (0.025 M ammonium acetate buffer, pH 6.8) and 13% solvent B (acetonitrile), followed by an isocratic wash using 40% of solvent A and 60% solvent B from 19 to 25 min.
The ITLC method used Gelman Sciences silica-gel ITLC paper strips and 1:1 mixture of acetone and saline as eluant. By this method, the radiolabeled compounds migrate to the solvent front while [^90Y]/^177Lu]colloid and [^90Y]/^177Lu]acetate remain at the origin.
^90Y-A was prepared using the procedure described in example 4. The resulting solution was the kept in a dry-ice box (−78° C.) for 3 days. Samples were analyzed at t=0, 24, 48, and 72 h.
To a lead-shielded clean 5 mL vial containing 100 μg of COMPOUND A and 2 mg of 3,4,5-trihydroxybenzoic acid (3,4,5-THBA) dissolved in 0.5 mL of 0.5 M ammonium acetate buffer (pH=8.0) was added 20 μL Of ^90YCl3 solution (˜20 mCi) in 0.05 N HCl. The reaction mixture was heated at 100° C. for 5 min. After cooling to room temperature, 0.5 mL of 3,4,5-THBA solution (20 mg/mL) in 0.5 M ammonium acetate buffer (pH=8.0) was added to the solution above. A sample of the resulting mixture was then diluted 20-fold with GA solution (10 mg/mL, pH=7.4), and analyzed by HPLC (Method 1, injection volume=1 μL) and ITLC. […] The resulting mixture was kept at −78° C. for 3 days. Samples were analyzed at t=0, 1, 2, and 3 days.
Synthesis of ^90Y-A was carried out according to the procedure described in example 12. After cooling to room temperature, 0.5 mL of 2,3,4-THBA solution (20 mg/mL) in 0.5 M ammonium acetate buffer (pH=8.0) was added to the solution containing ^90Y-A. The resulting mixture was kept at -78 °C for 3 days. Samples were analyzed at t=0, 1, 2, and 3 days.
Synthesis of ^90Y-A was carried out according to the procedure described in example 12. After cooling to room temperature, 0.5 mL of DSA solution (20 mg/mL) in 0.5 M ammonium acetate buffer (pH=8.0) was added to the solution containing ^90Y-A. The resulting mixture was kept at −78° C. for 3 days. Samples were analyzed at t=0, 1, 2, and 3 days.
Synthesis of ^90Y-A was carried out according to the procedure described in example 12. After cooling to room temperature, 0.5 mL of HABA solution (20 mg/mL) in 0.5 M ammonium acetate buffer (pH=8.0) was added to the solution containing ^90Y-A. The resulting mixture was kept at −78° C. for 3 days. Samples were analyzed at t=0, 1, 2, and 3 days. […]
To a lead-shielded clean 30 mL vial containing 1000 μg of COMPOUND A and 100 mg of sodium gentisate (GA) dissolved in 5 mL of 0.5 M ammonium acetate buffer (pH=7.5) was added ˜250 μL of ^90YCl3 solution (˜200 mCi) in 0.05 N HCl. The reaction mixture was heated at 100° C. for 15 min. […]

Data set [2] in a line: Solution stability of ^90Y-B at −78° C., RCP by radio-HPLC. The conditions noted are these: ^90Y-B prepared with GA. The method, then: as §1, §2
HPLC method 2 used a HP-1100 HPLC system with a UV/visible detector (λ=220 nm), an IN-US radio-detector, and a Zorbax C18 column (4.6 mm×250 mm, 80 Å pore size). The flow rate was 1 mL/min with a gradient mobile phase starting from 92% solvent A (0.025 M ammonium acetate buffer, pH 6.8) and 8% solvent B (acetonitrile) at 0 min to 90% solvent A and 10% solvent B at 18 min, followed by an isocratic wash using 40% of solvent A and 60% solvent B from 19 to 25 min.
The ITLC method used Gelman Sciences silica-gel ITLC paper strips and 1:1 mixture of acetone and saline as eluant. By this method, the radiolabeled compounds migrate to the solvent front while [^90Y]/^177Lu]colloid and [^90Y]/^177Lu]acetate remain at the origin. […]
The 0.5 M ammonium acetate buffer (pH 8.0) was first degassed under vacuum for 1-2 min. COMPOUND B and gentisic acid (sodium salt, GA) were dissolved in the degassed buffer to give a concentration of 100 μg/mL for COMPOUND B and 20 mg/mL for GA. The resulting solution was immediately degassed under vacuum for another 1-2 min. To a clean sealed 5 mL vial was added 1.0 mL of the degassed 0.5 M ammonium acetate buffer (pH 8.0) containing 100 μg COMPOUND B and 10 mg GA. The solution was degassed again under vacuum. Upon addition of ˜20 μL of ^90YCl3 solution (˜20 mCi) in 0.05 N HCl, the reaction mixture was heated at 100° C. for 5 min. After cooling to room temperature, a sample of the resulting solution was diluted 20-fold with saline containing gentisate (10 mg/mL), and was then analyzed by HPLC (Method 2, injection volume=1-2 μL) and ITLC. […] To the solution above was added 0.5 mL of sodium ascorbate solution (40 mg/mL in 0.5 M ammonium acetate buffer, pH=7.4). The resulting mixture was then kept in a dry-ice box (−78° C.) for 7 days. Samples were analyzed at t=0, 3 and 7 days.
The 0.5 M ammonium acetate buffer (pH 8.0) was first degassed under vacuum for 1-2 min. COMPOUND B and gentisic acid (sodium salt, GA) were dissolved in the degassed buffer to give a concentration of 100 μg/mL for COMPOUND B and 20 mg/mL for GA. The resulting solution was immediately degassed under vacuum for another 1-2 min. To a clean sealed 5 mL vial was added 1.0 mL of the degassed 0.5 M ammonium acetate buffer (pH 8.0) containing 100 μg COMPOUND B and 10 mg GA. The solution was degassed again under vacuum. Upon addition of ˜20 μL of ^90YCl3 solution (˜20 mCi) in 0.05 N HCl, the reaction mixture was heated at 100° C. for 5 min. After cooling to room temperature, a sample of the resulting solution was diluted 20-fold with saline containing gentisate (10 mg/mL), and was then analyzed by HPLC (Method 2, injection volume=1-2 μL) and ITLC. […] To the solution above was added 0.5 mL of 2,3,4-trihydroxybenzoic acid solution (20 mg/mL in 0.5 M ammonium acetate buffer, pH=6.5). The resulting mixture was then kept in a dry-ice box (−78° C.) for 7 days. Samples were analyzed at t=0, 3 and 7 days. […]

The nature of data set [3]: Solution stability of ^90Y-A at room temperature, RCP by radio-HPLC. To be noted: room temperature; for RCP (%) t = 0 h / RCP (%) t = 24 h / RCP (%) t = 48 h / RCP (%) t = 120 h / RCP (%) t = 144 h / RCP (%) t = 72 h / RCP (%) t = 148 h: ^90Y-A (~20 mCi); for RCP (%) change: ^90Y-A, t = 0 h to last time point. The method, then:
The advantage of using HPLC is that radio-impurities caused by radiolytic degradation can be separated from the radiopharmaceutical under optimized chromatographic conditions.
The initial RCP of a radiopharmaceutical is largely dependent on radiolabeling conditions such as pH, heating temperature and time. Once a radiopharmaceutical is prepared in high yield, the stability of the radiopharmaceutical composition is measured by the` RCP change of the radiopharmaceutical over a certain period of time.
Analytical Methods. HPLC method 1 used a HP-1100 HPLC system with a UV/visible detector (λ=220 nm), an IN-US radio-detector, and a Zorbax C18 column (4.6 mm×250 mm, 80 Å pore size).
The ITLC method used Gelman Sciences silica-gel ITLC paper strips and 1:1 mixture of acetone and saline as eluant.
(§3) The reaction mixture was heated at 100° C. for 10 min. A sample of the resulting solution was first diluted 20-fold with 2 mM DTPA solution (pH=5), and was then analyzed by HPLC (Method 1, injection volume=1-2 μL) and ITLC. […] The resulting solution was kept at room temperature for 6 days.
as §3, §3
The reaction mixture was heated at 100° C. for 10 min. A sample of the resulting solution was first diluted 20-fold with 2 mM DTPA solution (pH=5), and was then analyzed by HPLC (Method 1, injection volume 1-2 μL) and ITLC. […] The resulting solution was kept at room temperature for 7 days.
(§4) The reaction mixture was heated at 100° C. for 10 min. A sample of the resulting solution was first diluted 20-fold with 2 mM DTPA solution (pH=5), and was then analyzed by HPLC (Method 1, injection volume=1-2 μL) and ITLC. […] The resulting solution was kept at room temperature for 7 days.
as §4, §4

Setting [4] is: ^90Y-A prepared using 2 mg 3,4,5-THBA, second stabilizer (0.5 mL of 20 mg/mL) added after radiolabeling, −78° C.
Setting [5] is: degassed, second stabilizer (20 mg AA, 20 mg DSA, 10 mg 2,3,4-THBA, 10 mg HABA) added post-labeling.
[6] abbreviates: ^90Y-A, 10 mg stabilizer, dry-ice box (−78° C.).
The mark [7] stands for this setting: ^90Y-A, 10 mg stabilizer, −78° C.

Marks after values point to notes of the source that are not given here.

As for `Nc1ccc(C(=O)O)cc1O` [HABA, 3-hydroxy-4-aminobenzoic acid], in data set [1] (setting [4]), the “RCP (%) t = 0 h” value came out at 98.5%, the “RCP (%) t = 24 h” value is 98.3%, the “RCP (%) t = 48 h” value was 98.7% and the “RCP (%) t = 72 h” value is listed as 98.1%. Besides, in data set [1] (^90Y-A prepared using 2 mg 3,4,5-THBA, second stabilizer added after radiolabeling, −78° C.), the “RCP (%) change” value stood at 0.4%. In data set [2] (setting [5]), the “RCP (%) t = 0” value amounted to 94.8%, the “RCP (%) t = 3 days” value is listed as 94.5% and the “RCP (%) t = 7 days” value came to 94.0%. For the same compound, the “RCP (%) change” value in data set [2] (second stabilizer added post-labeling, t = 0 to 7 days) was determined as 0.8%.

Take `O=Cc1cc(O)c(O)c(O)c1` [3,4,5-THBAD, 3,4,5-trihydroxybenzaldehyde]: in data set [3] (2 mg stabilizer), the “RCP (%) t = 0 h” value worked out at 95.5%, the “RCP (%) t = 24 h” value came to 92.8%, the “RCP (%) t = 48 h” value stood at 87.4% and the “RCP (%) t = 120 h” value came to 84.9%. The “RCP (%) t = 144 h” value in data set [3] (2 mg stabilizer) stood at 80.7%. Also, in data set [3] (10 mg stabilizer), the “RCP (%) t = 0 h” value is given as 88.1* %, the “RCP (%) t = 24 h” value amounted to 82.3%, the “RCP (%) t = 72 h” value is given as 77.3% and the “RCP (%) t = 148 h” value is 68.4%. Further, the “RCP (%) change” value in data set [3] (10 mg stabilizer) was determined as 19.7%. In data set [1] (setting [6]), the “RCP (%) t = 0 h” value is listed as 88.2%, the “RCP (%) t = 24 h” value is given as 86.4%, the “RCP (%) t = 48 h” value was determined as 87.3% and the “RCP (%) t = 72 h” value is given as 87.4%. In addition, the “RCP (%) change” value in data set [1] (setting [7]) is 0.8%.

As to `O=C([O-])c1cc(O)ccc1O.[Na+]` [GA, sodium gentisate, reference compound], in data set [3] (2 mg stabilizer), the “RCP (%) t = 0 h” value was 94.6%, the “RCP (%) t = 24 h” value amounted to 84.5%, the “RCP (%) t = 48 h” value came to 80.7% and the “RCP (%) t = 120 h” value worked out at 71.2%. Moreover, the “RCP (%) t = 144 h” value in data set [3] (2 mg stabilizer) is on record as 69.7%. Besides, in data set [3] (10 mg stabilizer), the “RCP (%) t = 0 h” value is given as 96.3%, the “RCP (%) t = 24 h” value came out at 92.6%, the “RCP (%) t = 72 h” value is 83.8% and the “RCP (%) t = 148 h” value was found to be 77.3%. Also, in data set [3] (10 mg stabilizer), the “RCP (%) change” value was determined as 19%. Besides, in data set [1] (setting [6]), the “RCP (%) t = 0 h” value is recorded as 96.4%, the “RCP (%) t = 24 h” value came to 96.7%, the “RCP (%) t = 48 h” value is 95.4% and the “RCP (%) t = 72 h” value turned out to be 94.6%. In data set [1] (setting [7]), the “RCP (%) change” value amounted to 1.8%.
